Measurements as given in patent US9486471B2, “Combination therapy for the treatment of cancer” (McMaster University, priority 2012, dated 2016).

Key:
[1] = tested on: AML LSCs (CD45+CD33+ blast engraftment); experiment: Xenotransplantation of compound-treated AML cells into NSG mice; format: in vivo
Method: Xenotransplantation Assays. NOD.Cg-Prkdc^scid II2rg^tm1Wjl/SzJ adult mice (NSG) were sub-lethally irradiated with 315 rads 24 hours prior transplantation. 0.8-1.0×10^7 AML MNCs or 1.5-1.8×10^5 CB lin-hematopoietic cells treated with compound or DMSO-vehicle for 24 h were injected via tail vein (IV). After 6-10 weeks, animals were culled, and the BM and spleen were analyzed for the presence of human cells by flow cytometry (LSRII, BD) and data was analyzed using FlowJo software (Tree Star Inc). For secondary HSPC transplants, equal number of engrafted human cells from CB lin− transplants were injected IV in adult irradiated NSG mice as described for primary transplants.
To delineate whether the inhibition of AML-blasts detected in vitro was due to the compounds affecting the neoplastic stem cell compartment, xenotransplantation studies (Dick, 2008) that functionally define LSCs and hematopoietic stem cells (HSCs) were conducted (FIG. 12).

[2] = tested on: v1H9-Oct4-GFP neoplastic hPSC; experiment: Chemical screening of neoplastic hPSC reporter line (GFP / Hoechst, loss of pluripotency); format: cell-based, human
Method: In Vitro Culture Platform for Normal and Neoplastic hPSCs. Chemical screens involved v1H9-Oct4-GFP cells seeded at 5,000 cells per well in mouse embryonic fibroblast conditioned media (MEFCM) supplemented with 8 ng/ml bFGF. 24 hours later the media was exchanged for MEFCM with compounds at 10 μM and 0.1% DMSO, 0.1% DMSO (−BMP4) or 100 ng/ml of BMP4 and 0.1% DMSO (+BMP4) for 48 hours before being exchanged with fresh media with compound for a further 24 h (total compound treatment time 72 h) prior to being fixed and prepared for automated imaging and plate reader analysis. Confluent H9 & fibroblast-derived iPSC were seeded at 10,000 cells per well in MEFCM supplemented with 8 ng/ml bFGF. 24 hours later the cells were treated with compounds at 10 μM and 0.1% DMSO, 0.1% DMSO (−BMP4) or 100 ng/ml of BMP4 and 0.1% DMSO (+BMP4). Fresh MEFCM supplemented with compounds was exchanged daily for 5 days. On day 5, hPSC's were fixed and prepared for automated imaging and plate reader analysis. See supplementary experimental procedures for further details.
Imaging Neoplastic hPSC. Cells were fixed in 2% paraformaldehyde and stained with 10 μg/mL Hoechst 33342 (Invitrogen) with a Combi Multidrop Dispenser (Thermo). For experiments that involved Oct4 immunocytochemistry, a monoclonal antibody for Oct4 (BD) was used along with an Alexa-Fluor-647 secondary (Invitrogen). Immunocytochemical staining was performed by a Janus automated liquid handler (Perkin Elmer). Images were acquired at 10× N.A with an Arrayscan HCS VTI Reader (Cellomics) by means of epi-fluorescence illumination and standard filter sets.
Image Analysis. Image analysis was performed using custom scripts in Acapella software (Perkin Elmer). Nuclear objects were segmented from the Hoechst signal. For neoplastic cell lines, object intensity analysis was performed on GFP positive cells only. For normal cell lines, the fraction of Alexa-Fluor-647-positive cells was quantified. Images and well-level data were stored and analysed in a Columbus Database (Perkin Elmer) and further data analysis, compounds registration and hit identification in ActivityBase (IDBS).
These Collections have been previously scrutinized in numerous other mammalian cell lines (Diallo et al., 2010; Shoemaker, 2006).

[3] = tested on: neoplastic hPSCs (v1H9-Oct4-GFP); experiment: Flow cytometry of Oct4 in neoplastic hPSCs; format: cell-based, human

CSc1ccc2c(c1)N(CCC1CCCCN1C)c1ccccc1S2 (racemic) [thioridazine, 10-{2-[(RS)-1-Methylpiperidin-2-yl]ethyl}-2-methylsulfanylphenothiazine] was tested, and the “leukemic disease-initiating AML LSC capacity” value ([1]; 10 μM, 24 h ex vivo treatment) was “significantly reduce”, the “level of leukemic engraftment of secondary transplant recipients” value ([1]; secondary recipients, in the absence of thioridazine) was “no difference” and the “hit in extended screen (loss of pluripotency)” value ([2]; 2446 compound screen, reduced mean GFP intensity and cell count) was “hits”. For the same compound, the activity at 10 µM ([2]; Homo sapiens, 10 μM, 590 compound screen, read-out: Hoechst % residual activity (% RA)) was > 30%, the cell number [3] was “reductions” and the “levels of Oct4” value [3] was “reductions”.
